In ChEMBL document CHEMBL1201862, “PubChem BioAssay data set” (2004):
Calls of active or inactive are those of the source.

What was measured:
Type in all cases: functional
Aurora kinase B = Aurora kinase B (Homo sapiens, UniProt Q96GD4)
[1] = target: Vascular endothelial growth factor receptor 1 (Homo sapiens, UniProt P17948);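 also: measured within a kinome-wide profiling panel, FLT1 as the panel member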
[2] = target: T1, cAMP-dependent protein kinase catalytic subunit PRKX (Homo sapiens, UniProt P51817)
T1 sequence (P51817 whole entry): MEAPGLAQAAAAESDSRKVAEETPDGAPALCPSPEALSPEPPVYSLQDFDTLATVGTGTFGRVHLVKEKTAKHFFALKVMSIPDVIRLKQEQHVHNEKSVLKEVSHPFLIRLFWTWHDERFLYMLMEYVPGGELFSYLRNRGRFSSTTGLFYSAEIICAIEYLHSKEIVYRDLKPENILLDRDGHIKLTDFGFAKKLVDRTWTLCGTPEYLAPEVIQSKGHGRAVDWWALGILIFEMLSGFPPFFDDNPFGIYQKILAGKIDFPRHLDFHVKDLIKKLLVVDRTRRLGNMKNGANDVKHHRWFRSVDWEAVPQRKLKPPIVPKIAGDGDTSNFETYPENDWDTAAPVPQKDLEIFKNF

[3] = target: Dual specificity mitogen-activated protein kinase kinase 1 (Homo sapiens, UniProt Q02750); test: Navigating the Kinome. Panel member name: MAP2K1
[4] = target: Cyclin-dependent kinase 9 (Homo sapiens, UniProt P50750);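 also: value from the CDK9 entry of a kinome-spanning kinase panel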
[5] = target: T2, Serine/threonine-protein kinase D3 (Homo sapiens, UniProt O94806);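 also: determined within a kinase panel screen, with PRKCN as the panel member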
T2 sequence (O94806 whole entry): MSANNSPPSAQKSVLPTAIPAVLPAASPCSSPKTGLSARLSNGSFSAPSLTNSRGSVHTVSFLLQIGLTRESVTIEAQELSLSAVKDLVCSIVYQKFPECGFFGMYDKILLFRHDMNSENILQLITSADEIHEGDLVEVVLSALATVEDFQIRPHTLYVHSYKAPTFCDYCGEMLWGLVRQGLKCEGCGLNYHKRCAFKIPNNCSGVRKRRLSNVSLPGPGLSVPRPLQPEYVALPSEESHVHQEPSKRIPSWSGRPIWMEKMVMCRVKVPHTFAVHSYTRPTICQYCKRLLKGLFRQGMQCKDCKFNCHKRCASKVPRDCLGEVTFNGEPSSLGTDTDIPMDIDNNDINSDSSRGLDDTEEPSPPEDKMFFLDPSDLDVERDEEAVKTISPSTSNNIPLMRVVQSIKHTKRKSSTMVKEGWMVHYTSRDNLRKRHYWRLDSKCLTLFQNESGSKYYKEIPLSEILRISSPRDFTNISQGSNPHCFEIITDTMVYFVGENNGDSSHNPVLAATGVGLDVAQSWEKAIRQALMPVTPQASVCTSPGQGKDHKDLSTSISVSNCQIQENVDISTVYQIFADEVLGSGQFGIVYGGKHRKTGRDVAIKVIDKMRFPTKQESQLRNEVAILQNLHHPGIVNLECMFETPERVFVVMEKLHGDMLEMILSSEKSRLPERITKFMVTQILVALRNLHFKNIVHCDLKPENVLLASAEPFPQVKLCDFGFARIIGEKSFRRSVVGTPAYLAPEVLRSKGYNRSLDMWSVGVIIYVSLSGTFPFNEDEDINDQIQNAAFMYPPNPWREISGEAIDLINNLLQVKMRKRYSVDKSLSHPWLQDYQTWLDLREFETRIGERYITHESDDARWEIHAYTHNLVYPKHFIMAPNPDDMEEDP

[6] = target: Dual specificity tyrosine-phosphorylation-regulated kinase 1B (Homo sapiens, UniProt Q9Y463); test: Navigating the Kinome. Panel member name: DYRK1B
[7] = target: Tyrosine-protein kinase JAK2 (Homo sapiens, UniProt O60674);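 also: JAK2 tested as one member of a kinase panel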
[8] = target: Macrophage colony-stimulating factor 1 receptor (Homo sapiens, UniProt P07333);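 also: value comes from the Navigating the Kinome screening panel, CSF1R member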
[9] = target: Serine/threonine-protein kinase PAK 4 (Homo sapiens, UniProt O96013);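 also: value obtained within a kinome profiling panel in which PAK4 was one of the panel members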
[10] = target: T3, Receptor-type tyrosine-protein kinase FLT3 (Homo sapiens, UniProt P36888);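 also: FLT3 was tested as one member of a kinome-wide kinase panel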
T3 sequence (P36888 whole entry): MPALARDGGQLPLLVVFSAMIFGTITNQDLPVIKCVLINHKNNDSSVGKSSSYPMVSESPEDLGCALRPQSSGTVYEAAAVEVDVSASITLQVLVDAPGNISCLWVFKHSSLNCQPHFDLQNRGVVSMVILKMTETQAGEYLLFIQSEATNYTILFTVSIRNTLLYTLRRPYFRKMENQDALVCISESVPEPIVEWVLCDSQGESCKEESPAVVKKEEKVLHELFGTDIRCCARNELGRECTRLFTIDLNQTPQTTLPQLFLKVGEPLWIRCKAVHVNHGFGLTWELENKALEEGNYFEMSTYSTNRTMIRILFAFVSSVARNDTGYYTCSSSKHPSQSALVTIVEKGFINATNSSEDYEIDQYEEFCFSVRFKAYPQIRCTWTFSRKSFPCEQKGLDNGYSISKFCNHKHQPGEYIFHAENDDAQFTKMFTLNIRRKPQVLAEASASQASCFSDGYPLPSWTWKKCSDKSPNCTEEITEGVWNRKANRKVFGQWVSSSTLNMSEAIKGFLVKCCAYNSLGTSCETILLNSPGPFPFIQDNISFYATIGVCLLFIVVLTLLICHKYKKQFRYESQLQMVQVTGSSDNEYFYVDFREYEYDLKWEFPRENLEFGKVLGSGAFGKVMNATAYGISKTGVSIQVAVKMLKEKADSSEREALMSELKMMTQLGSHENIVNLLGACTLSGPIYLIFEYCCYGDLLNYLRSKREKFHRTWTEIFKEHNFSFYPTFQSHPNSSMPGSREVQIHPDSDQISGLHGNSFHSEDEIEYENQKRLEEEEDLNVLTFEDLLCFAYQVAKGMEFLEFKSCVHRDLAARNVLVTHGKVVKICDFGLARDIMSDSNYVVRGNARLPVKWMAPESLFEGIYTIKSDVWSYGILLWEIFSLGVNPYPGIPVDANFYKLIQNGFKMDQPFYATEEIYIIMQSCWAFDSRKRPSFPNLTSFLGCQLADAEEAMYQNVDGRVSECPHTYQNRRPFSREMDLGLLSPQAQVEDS

[11] = target: Insulin-like growth factor 1 receptor (Homo sapiens, UniProt P08069); test: Navigating the Kinome. Panel member name: IGF1R
[12] = target: High affinity nerve growth factor receptor (Homo sapiens, UniProt P04629);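 also: NTRK1 tested as one member of a kinome-wide profiling panel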

Chain of Dual specificity tyrosine-phosphorylation-regulated kinase 1B (Q9Y463 whole entry): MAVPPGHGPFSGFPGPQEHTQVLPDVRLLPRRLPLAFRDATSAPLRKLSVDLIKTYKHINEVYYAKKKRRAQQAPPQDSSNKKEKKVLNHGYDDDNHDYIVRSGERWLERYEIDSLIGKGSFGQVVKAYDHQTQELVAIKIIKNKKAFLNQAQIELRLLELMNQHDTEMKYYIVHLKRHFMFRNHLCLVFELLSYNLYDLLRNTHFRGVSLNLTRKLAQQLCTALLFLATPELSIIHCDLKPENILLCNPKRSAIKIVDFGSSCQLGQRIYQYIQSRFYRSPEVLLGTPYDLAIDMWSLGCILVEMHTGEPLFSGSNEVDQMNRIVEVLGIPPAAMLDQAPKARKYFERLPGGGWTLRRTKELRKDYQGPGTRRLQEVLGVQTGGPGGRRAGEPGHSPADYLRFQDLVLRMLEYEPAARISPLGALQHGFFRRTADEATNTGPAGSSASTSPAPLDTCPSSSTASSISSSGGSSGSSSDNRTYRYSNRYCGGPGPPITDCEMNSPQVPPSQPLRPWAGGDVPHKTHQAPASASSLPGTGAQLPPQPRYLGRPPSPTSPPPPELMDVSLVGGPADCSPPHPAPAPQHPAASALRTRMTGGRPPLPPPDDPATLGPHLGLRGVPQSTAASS
Chain of Serine/threonine-protein kinase PAK 4 (O96013 whole entry): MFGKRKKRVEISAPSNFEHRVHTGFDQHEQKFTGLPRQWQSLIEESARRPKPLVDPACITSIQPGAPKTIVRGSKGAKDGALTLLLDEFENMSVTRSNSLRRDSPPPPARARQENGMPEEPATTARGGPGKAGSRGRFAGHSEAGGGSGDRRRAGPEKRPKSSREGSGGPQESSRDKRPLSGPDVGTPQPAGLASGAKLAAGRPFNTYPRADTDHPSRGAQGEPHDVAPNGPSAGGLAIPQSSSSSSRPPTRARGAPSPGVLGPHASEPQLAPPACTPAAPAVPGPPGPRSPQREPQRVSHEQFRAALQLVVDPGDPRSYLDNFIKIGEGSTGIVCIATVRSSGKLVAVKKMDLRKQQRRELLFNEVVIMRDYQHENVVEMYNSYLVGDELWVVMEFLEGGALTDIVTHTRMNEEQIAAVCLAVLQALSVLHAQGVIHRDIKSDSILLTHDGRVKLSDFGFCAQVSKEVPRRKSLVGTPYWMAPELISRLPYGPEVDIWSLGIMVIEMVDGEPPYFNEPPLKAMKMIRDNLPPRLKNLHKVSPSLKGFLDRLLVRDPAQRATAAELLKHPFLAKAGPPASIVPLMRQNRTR
Chain of Vascular endothelial growth factor receptor 1 (P17948 whole entry): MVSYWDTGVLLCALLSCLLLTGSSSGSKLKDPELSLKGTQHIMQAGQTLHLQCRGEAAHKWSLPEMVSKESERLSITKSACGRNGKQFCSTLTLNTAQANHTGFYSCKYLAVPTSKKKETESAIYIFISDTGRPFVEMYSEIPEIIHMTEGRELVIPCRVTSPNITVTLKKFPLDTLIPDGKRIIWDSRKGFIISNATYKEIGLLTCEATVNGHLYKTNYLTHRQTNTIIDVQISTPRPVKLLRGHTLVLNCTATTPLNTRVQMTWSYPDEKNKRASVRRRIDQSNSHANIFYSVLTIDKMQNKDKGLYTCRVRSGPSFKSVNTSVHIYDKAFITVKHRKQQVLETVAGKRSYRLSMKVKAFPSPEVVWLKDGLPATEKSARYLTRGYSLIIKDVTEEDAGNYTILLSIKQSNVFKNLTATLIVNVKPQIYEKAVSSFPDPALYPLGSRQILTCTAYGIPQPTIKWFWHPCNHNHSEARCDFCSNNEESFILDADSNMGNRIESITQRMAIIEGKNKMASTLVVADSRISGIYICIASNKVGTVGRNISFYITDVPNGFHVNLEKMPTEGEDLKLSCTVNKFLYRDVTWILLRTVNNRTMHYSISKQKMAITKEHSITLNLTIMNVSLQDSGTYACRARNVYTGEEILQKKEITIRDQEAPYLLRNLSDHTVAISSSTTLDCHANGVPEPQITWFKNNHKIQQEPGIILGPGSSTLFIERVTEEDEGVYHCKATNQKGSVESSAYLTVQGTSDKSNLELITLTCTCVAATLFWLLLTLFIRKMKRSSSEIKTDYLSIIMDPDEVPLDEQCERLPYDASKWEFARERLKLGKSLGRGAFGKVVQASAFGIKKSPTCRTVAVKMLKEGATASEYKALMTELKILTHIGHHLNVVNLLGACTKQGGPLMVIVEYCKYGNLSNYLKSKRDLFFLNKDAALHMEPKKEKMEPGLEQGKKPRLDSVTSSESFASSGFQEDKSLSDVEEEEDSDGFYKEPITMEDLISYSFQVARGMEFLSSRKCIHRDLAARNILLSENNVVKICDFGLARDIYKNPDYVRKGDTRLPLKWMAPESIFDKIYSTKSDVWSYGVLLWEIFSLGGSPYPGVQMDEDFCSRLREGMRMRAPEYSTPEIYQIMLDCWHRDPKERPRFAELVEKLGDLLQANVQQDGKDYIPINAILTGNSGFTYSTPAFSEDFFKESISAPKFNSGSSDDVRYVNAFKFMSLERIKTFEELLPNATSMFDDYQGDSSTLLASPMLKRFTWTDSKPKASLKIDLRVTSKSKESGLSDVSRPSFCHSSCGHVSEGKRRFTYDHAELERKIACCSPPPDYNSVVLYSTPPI
Chain of Tyrosine-protein kinase JAK2 (O60674 whole entry): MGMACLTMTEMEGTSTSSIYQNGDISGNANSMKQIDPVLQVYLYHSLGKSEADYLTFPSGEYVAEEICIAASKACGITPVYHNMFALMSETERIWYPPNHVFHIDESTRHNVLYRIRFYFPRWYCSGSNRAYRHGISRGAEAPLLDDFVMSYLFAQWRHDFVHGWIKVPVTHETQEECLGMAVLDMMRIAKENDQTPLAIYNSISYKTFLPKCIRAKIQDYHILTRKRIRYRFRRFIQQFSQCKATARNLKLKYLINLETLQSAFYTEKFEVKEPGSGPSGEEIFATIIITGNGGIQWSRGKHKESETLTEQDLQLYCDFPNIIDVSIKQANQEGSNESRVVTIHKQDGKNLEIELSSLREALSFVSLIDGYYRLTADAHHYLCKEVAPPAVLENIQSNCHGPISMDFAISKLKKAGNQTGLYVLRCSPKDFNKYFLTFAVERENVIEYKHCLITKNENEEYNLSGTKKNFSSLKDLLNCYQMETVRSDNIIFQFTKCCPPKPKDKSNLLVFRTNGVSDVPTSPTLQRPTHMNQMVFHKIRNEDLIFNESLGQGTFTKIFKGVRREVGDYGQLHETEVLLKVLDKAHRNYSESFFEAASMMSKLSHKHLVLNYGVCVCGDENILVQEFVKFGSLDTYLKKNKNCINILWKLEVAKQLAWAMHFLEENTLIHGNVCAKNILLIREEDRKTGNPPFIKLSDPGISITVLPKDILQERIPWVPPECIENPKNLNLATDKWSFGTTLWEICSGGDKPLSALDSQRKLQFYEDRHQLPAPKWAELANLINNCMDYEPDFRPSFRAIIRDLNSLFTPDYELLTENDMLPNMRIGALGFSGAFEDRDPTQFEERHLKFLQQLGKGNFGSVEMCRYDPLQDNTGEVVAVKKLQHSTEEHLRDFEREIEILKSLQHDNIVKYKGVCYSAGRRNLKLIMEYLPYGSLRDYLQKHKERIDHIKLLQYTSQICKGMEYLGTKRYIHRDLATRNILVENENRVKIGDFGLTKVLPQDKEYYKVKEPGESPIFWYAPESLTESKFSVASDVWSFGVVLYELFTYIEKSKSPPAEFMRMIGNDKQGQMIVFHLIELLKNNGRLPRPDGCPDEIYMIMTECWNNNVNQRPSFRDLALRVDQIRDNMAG
Chain of Macrophage colony-stimulating factor 1 receptor (P07333 whole entry): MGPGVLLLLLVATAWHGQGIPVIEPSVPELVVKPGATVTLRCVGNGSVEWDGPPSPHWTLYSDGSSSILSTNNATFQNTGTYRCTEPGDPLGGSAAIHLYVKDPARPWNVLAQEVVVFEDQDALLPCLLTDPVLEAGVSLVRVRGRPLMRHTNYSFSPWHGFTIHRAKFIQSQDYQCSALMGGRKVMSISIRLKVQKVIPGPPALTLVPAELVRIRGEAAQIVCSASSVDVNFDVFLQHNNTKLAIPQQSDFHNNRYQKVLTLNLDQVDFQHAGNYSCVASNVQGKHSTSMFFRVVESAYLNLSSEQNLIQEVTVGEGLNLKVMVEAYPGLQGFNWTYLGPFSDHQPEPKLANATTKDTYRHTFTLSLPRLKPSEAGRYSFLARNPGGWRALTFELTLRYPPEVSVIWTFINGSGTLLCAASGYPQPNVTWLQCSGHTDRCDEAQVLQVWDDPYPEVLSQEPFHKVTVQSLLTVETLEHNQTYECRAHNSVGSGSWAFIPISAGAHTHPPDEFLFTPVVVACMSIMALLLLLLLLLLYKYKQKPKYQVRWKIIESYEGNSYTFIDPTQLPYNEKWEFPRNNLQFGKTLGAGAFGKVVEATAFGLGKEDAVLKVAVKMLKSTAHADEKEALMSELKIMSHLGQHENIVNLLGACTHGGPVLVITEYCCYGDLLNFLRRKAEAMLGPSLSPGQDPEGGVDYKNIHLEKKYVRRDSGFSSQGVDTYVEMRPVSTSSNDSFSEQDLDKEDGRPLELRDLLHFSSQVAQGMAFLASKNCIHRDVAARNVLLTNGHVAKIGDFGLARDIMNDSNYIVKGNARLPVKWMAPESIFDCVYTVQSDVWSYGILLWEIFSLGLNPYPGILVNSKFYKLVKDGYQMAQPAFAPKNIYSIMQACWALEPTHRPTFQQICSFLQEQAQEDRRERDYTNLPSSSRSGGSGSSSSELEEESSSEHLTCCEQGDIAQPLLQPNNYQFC
Chain of Cyclin-dependent kinase 9 (P50750 whole entry): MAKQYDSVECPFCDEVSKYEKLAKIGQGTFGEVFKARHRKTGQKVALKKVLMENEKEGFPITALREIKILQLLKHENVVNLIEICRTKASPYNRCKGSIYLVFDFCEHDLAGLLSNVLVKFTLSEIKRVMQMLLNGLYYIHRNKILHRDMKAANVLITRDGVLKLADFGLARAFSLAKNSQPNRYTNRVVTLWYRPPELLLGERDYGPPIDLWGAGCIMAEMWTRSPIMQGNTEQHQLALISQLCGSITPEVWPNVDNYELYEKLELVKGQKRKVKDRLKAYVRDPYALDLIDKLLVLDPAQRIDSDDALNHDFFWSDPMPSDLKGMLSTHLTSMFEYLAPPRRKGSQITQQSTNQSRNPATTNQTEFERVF

Ki (Aurora kinase B)	Ki [1]	Ki [2]	Ki [3]	Ki [4]	Ki [5]	Ki [6]	Ki [7]	Ki [8]	Ki [9]	Ki [10]	Ki [11]	Ki [12]	Compound
5.01 µM (active)	10 µM (active)	12.6 µM (active)	50.1 µM (active)	12.6 µM (active)	20 µM (active)	10 µM (active)	79.4 µM (active)	> 100 µM (inactive)	39.8 µM (active)	–	–	–	O=c1[nH]c2cc(Br)cnc2[nH]1
–	> 3.98 µM (inactive)	> 1.26 µM (inactive)	> 3.16 µM (inactive)	> 1.58 µM (inactive)	> 3.98 µM (inactive)	> 2.51 µM (inactive)	0.000126 µM (active)	1.58 µM (active)	2.51 µM (active)	> 3.16 µM (inactive)	> 2.51 µM (inactive)	> 3.16 µM (inactive)	CCC1CC(NS(=O)(=O)C2CC2)CC1c1ncc2cnc3[nH]ccc3n12 (stereo not drawn)
> 3.98 µM (inactive)	> 3.98 µM (inactive)	> 3.16 µM (inactive)	> 3.16 µM (inactive)	> 1.58 µM (inactive)	> 3.98 µM (inactive)	> 2.51 µM (inactive)	> 2.51 µM (inactive)	> 2.51 µM (inactive)	> 5.01 µM (inactive)	> 3.16 µM (inactive)	> 2.51 µM (inactive)	> 3.16 µM (inactive)	O=C(Nc1cccc(C(F)(F)F)n1)Nc1ccnc2cc(OC(F)F)ccc12
> 3.98 µM (inactive)	> 3.98 µM (inactive)	> 3.16 µM (inactive)	3.16 µM (active)	> 1.58 µM (inactive)	> 3.98 µM (inactive)	> 2.51 µM (inactive)	2.51 µM (active)	> 2.51 µM (inactive)	> 5.01 µM (inactive)	> 3.16 µM (inactive)	> 2.51 µM (inactive)	2.51 µM (active)	O=C(Nc1cccc(C(F)(F)F)n1)Nc1ccnc2cc(Cl)ccc12
